Results as given in ChEMBL document CHEMBL6103668, “In-Silico Screening-Based Discovery of New Natural eEF2K Inhibitors with Neuritogenic Activity” (ACS Med Chem Lett, 2025).

Key:
[1] = tested on: HT-22; test: Cytotoxicity against mouse HT-22 cells assessed as cell viability at 1.25 to 5 uM incubated for 24 hrs by CCK8 assay; format: toxicity, cell-based; conditions: ht-22, 24 h, dose 1.25-5 µM
[2] = tested on: N2a; test: Cytotoxicity against mouse Neuro2a cells assessed as cell viability at 1.25 to 5 uM incubated for 24 hrs by CCK8 assay; format: toxicity, cell-based; conditions: dose 1.25-5 µM
[3] = tested on: N2a; test: Induction of neuronal differentiation in mouse Neuro2a cells assessed as neurite elongation at 5 uM incubated for 48 hrs by DAPI staining based fluorescence microscopic analysis; format: functional, cell-based
[4] = tested on: N2a; test: Induction of neuronal differentiation in mouse Neuro2a cells assessed as neurite formation at 5 uM incubated for 48 hrs by DAPI staining based fluorescence microscopic analysis; format: functional, cell-based

O=C1c2c(O)cc(O[C@@H]3O[C@H](CO)[C@@H](O)[C@H](O)[C@H]3O)cc2O[C@]1(O)Cc1ccc(O)cc1
Activity [1]: Non-toxic

COC(=O)[C@@H](Cc1ccc(O)c(O)c1)OC(=O)/C=C/c1ccc(OC)c(O)c1
Activity [1]: Non-toxic

O=c1cc(-c2ccccc2)oc2cc(O[C@@H]3O[C@H](CO[C@@H]4O[C@H](CO)[C@@H](O)[C@H](O)[C@H]4O)[C@@H](O)[C@H](O)[C@H]3O)c(O)c(O)c12
Activity [1]: Non-toxic

OC[C@H]1O[C@@H](Oc2c(O)cc(O)cc2[C@@H]2[C@@H](c3ccc(O)cc3)[C@H](c3ccc(O)cc3)[C@H]2c2cc(O)cc(O)c2O[C@@H]2O[C@H](CO)[C@@H](O)[C@H](O)[C@H]2O)[C@H](O)[C@@H](O)[C@@H]1O
Activity [1]: Non-toxic

O=C(O)[C@H]1O[C@@H](O[C@@H]2[C@@H](O)[C@@H](O)CO[C@H]2c2c(O)cc3oc(-c4ccc(O)c(O)c4)cc(=O)c3c2O)[C@H](O)[C@@H](O)[C@H]1O
Activity [1]: Non-toxic

COc1cc([C@H](O)[C@H](CO)Oc2c(OC)cc([C@H](O)[C@H](O)CO)cc2OC)ccc1O (mixture of isomers)
Activity [1]: Non-toxic

O=C(O)[C@H]1O[C@@H](O[C@@H]2[C@@H](O)[C@H](O)[C@@H](CO)O[C@H]2c2c(O)cc3oc(-c4ccc(O)c(O)c4)cc(=O)c3c2O)[C@H](O)[C@@H](O)[C@H]1O
Activity [1]: Non-toxic

O[C@H]1CC[C@H]2CN3CCc4c([nH]c5ccccc45)[C@@H]3C[C@@H]2C1
Activity [1]: Non-toxic

C[C@@H]1O[C@@H](OC[C@H]2O[C@@H](Oc3c(-c4ccc(O)cc4)oc4cc(O)cc(O)c4c3=O)[C@H](O)[C@@H](O)[C@@H]2O)[C@H](O)[C@H](O)[C@H]1O [NICOTIFLOROSIDE]
Activity [1]: Non-toxic

COc1cc(O)c(C(=O)CC(C)C)c2c1[C@@H]1C[C@H](C(C)C)C=C[C@]1(C)O2
Activity [1]: Non-toxic

C[C@@H]1O[C@@H](Oc2ccc(CNC(=S)NCc3ccc(O[C@@H]4O[C@@H](C)[C@H](O)[C@@H](O)[C@H]4O)cc3)cc2)[C@H](O)[C@H](O)[C@H]1O
Activity [1]: Non-toxic

C[C@@H]1CC[C@]2(C(=O)O)CC[C@]3(C)C(=CC[C@@H]4[C@@]5(C)CC[C@H](O[C@@H]6O[C@H](C(=O)O)[C@@H](O)[C@H](OS(=O)(=O)O)[C@H]6O)[C@@](C)(CO)[C@@H]5CC[C@]43C)[C@@H]2[C@]1(C)O
Activity [1]: Non-toxic

O=C(O)C1=CC[C@@H]2C(C(=O)O)=CO[C@@H](O[C@@H]3O[C@H](CO)[C@@H](O)[C@H](O)[C@H]3O)[C@H]12 [IXOSIDE]
Activity [1]: Non-toxic

C=C[C@H]1[C@H](O[C@@H]2O[C@H](CO)[C@@H](O)[C@H](O)[C@H]2O)OC=C(C(=O)O)[C@H]1CC(=O)O
Activity [1]: Non-toxic

O=c1c(O[C@@H]2O[C@H](CO)[C@@H](O)[C@H](O)[C@H]2O)c(-c2ccc(O)c(O)c2)oc2cc(O)cc(O)c12 [ISOQUERCETIN]
Activity [2]: Toxic | Activity [3]: Active; Significant Efficacy Observed | Activity [4]: Active; Significant Efficacy Observed | Activity [1]: Non-toxic

O=c1c(-c2ccc(O)cc2)coc2c([C@@H]3O[C@H](CO)[C@@H](O)[C@H](O)[C@H]3O)c(O)ccc12 [PUERARIN]
Activity [1]: Non-toxic

CC[C@H](CC[C@@H](C)[C@H]1CC[C@H]2[C@@H]3CC=C4C[C@@H](O[C@@H]5O[C@H](CO)[C@@H](O)[C@H](O)[C@H]5O)CC[C@]4(C)[C@H]3CC[C@]12C)C(C)C [SITOGLUSIDE]
Activity [1]: Non-toxic

O=C1c2c(O)cc(O)cc2O[C@H](c2cc(O)cc(O)c2)[C@H]1O
Activity [1]: Non-toxic

C[N+](C)(C)[C@H](Cc1c[nH]c2ccccc12)C(=O)[O-] [HYPAPHORINE]
Activity [1]: Non-toxic

C=C(c1[nH]c2ccccc2c1CN1C/C(=C/C)[C@@H]2CC(=O)c3[nH]c4ccccc4c3C[C@H]1C2C(=O)OC)[C@H]1CCN(C)C/C1=C\C (stereo partly specified)
Activity [2]: Toxic | Activity [3]: Active; Significant Efficacy Observed | Activity [4]: Active; Significant Efficacy Observed | Activity [1]: Non-toxic

COc1cc2oc(-c3ccc(O)cc3)cc(=O)c2c(O)c1[C@@H]1O[C@H](CO)[C@@H](O)[C@H](O)[C@H]1O[C@@H]1O[C@H](CO)[C@@H](O)[C@H](O)[C@H]1O
Activity [1]: Non-toxic

C[C@](O)(CC(=O)O)CC(=O)OC[C@H]1O[C@@H](OCc2ccccc2)[C@H](O)[C@@H](O)[C@@H]1O
Activity [1]: Non-toxic

COc1cc([C@@H]2Oc3c(OC)cc(CCCO[C@@H]4O[C@H](CO)[C@@H](O)[C@H](O)[C@H]4O)cc3[C@H]2CO)ccc1O
Activity [1]: Non-toxic

COc1ccc([C@@H]2c3cc(OC)c(O)cc3C[C@@H](C)[C@H]2C)cc1O
Activity [1]: Non-toxic

CC1=CC(=O)C[C@](C)(CO[C@@H]2O[C@H](CO)[C@@H](O)[C@H](O)[C@H]2O)[C@@]1(O)/C=C/C(C)=C/C(=O)O
Activity [1]: Non-toxic
